{"source": "patent US7235262B2", "about": "“Use of bioactive fraction from cow urine distillate (‘Go-mutra’) as a bio-enhancer of anti-infective, anti-cancer agents and nutrients” (Council of Scientific and Industrial Research, priority 2000, dated 2007)", "key": {"Bacillus subtilis": {"test_system": "Bacillus subtilis", "assay": "Broth assay for bio-enhancement of antibiotic killing, Gram-positive bacterium", "details": "cow urine distillate 1 μl/mL", "protocol": "(§1) For this, the cells are treated with compound for 4 to 8 hours and then washed free of it by centrifugation and washing in sterile water. This was followed by treatment with antibiotic as in steps b to d.\n(§2) In the next step of elucidation of the enhancer action, the applicants experimented with the killing activities of different antibiotics against the bacteria singly and in combination with the test component (cow urine distillate) following the method described above. […] In all the experiments the cow urine distillate concentration was kept at 1 μl/mL unless it is specifically mentioned."}, "Mycobacterium smegmatis": {"test_system": "Mycobacterium smegmatis", "assay": "Broth assay for bio-enhancement of antibiotic killing, Mycobacterium smegmatis", "details": "antibiotic 0.5 μg/ml; cow urine distillate 1 μl/mL", "protocol": "as §1, §2"}, "Escherichia coli": {"test_system": "Escherichia coli", "assay": "Broth assay for bio-enhancement of antibiotic killing, Gram-negative bacterium", "details": "cow urine distillate 1 μl/mL", "protocol": "as §1, §2"}, "fungal strains [1]": {"test_system": "fungal strains", "details": "active fraction Gm-IV, where present, at 10 μg/ml", "protocol": "(§3) The methodology followed by us for this screening included specifically designed bioassays as described below.\nas §1\n(§4) The Concentration of the Active Fraction is Kept at 10 μg/ml."}, "fungal strains [2]": {"test_system": "fungal strains", "assay": "organism not typed", "details": "read-out: Minimum inhibitory Concentration (MIC)", "protocol": "as §3, §1, §4"}, "[3]": {"test_system": "oxyR mutant of bacterium Escherichia coli", "type": "cell-based"}, "[4]": {"assay": "Bioavailability test through biological membrane (U-tube)", "type": "in vitro ADME, goat", "details": "Rifampicin 1 mg/ml, Fraction Gm-IV (where present) 1.0 μg/ml"}, "[5]": {"test_system": "MCF-7 (Breast cancer cell line)", "type": "cell-based", "details": "for Final titre of viable cells upon treatment with taxol alone / Final titre of viable cells upon treatment with taxol + cow urine distillate: MCF-7, count after 36 hours; for Final titre of viable cells upon treatment with taxol + cow urine distillate: cow urine distillate 1 μl/ml"}}, "note": "Where two headings read alike, the source gives them in different places."}
{"smiles": "CC1(C)S[C@@H]2[C@H](NC(=O)[C@H](N)c3ccccc3)C(=O)N2[C@H]1C(=O)O", "note": "[Ampicillin]", "values": [{"measurement": "Fold enhancement in antibiotic activity", "setting": "Bacillus subtilis; antibiotic 0.1 μg/ml", "result": 3.3}, {"measurement": "Fold enhancement in antibiotic activity", "setting": "Bacillus subtilis; antibiotic 0.5 μg/ml", "result": 3.0}, {"measurement": "Fold enhancement in antibiotic activity", "setting": "Mycobacterium smegmatis", "result": 11.6}, {"measurement": "Fold enhancement in antibiotic activity", "setting": "Escherichia coli; antibiotic 4 μg/ml", "result": 1.85}, {"measurement": "Fold enhancement in antibiotic activity", "setting": "Escherichia coli; antibiotic 6 μg/ml", "result": 4.50}, {"measurement": "Fold enhancement in antibiotic activity", "setting": "Escherichia coli; antibiotic 8 μg/ml", "result": 5.00}]}
{"smiles": "Clc1ccccc1C(c1ccccc1)(c1ccccc1)n1ccnc1", "note": "[Clotrimazol]", "values": [{"measurement": "Fold enhancement", "setting": "fungal strains [1]", "result": 0.0}, {"measurement": "MIC", "setting": "fungal strains [2]", "result": 4.4, "unit": "µg/mL"}]}
{"smiles": "NNC(=O)c1ccncc1", "note": "[Isoniazid]", "values": [{"measurement": "enhancement action of the distillate for INH", "setting": "[3]", "result": "enhancement action"}]}
{"smiles": "CO[C@H]1/C=C/O[C@@]2(C)Oc3c(C)c(O)c4c(O)c(c(/C=N/N5CCN(C)CC5)c(O)c4c3C2=O)NC(=O)/C(C)=C\\C=C\\[C@H](C)[C@H](O)[C@@H](C)[C@@H](O)[C@@H](C)[C@H](OC(C)=O)[C@@H]1C", "note": "[Rifampicin]", "values": [{"measurement": "OD measured as Absorbance across the membrane in receiving tube", "setting": "[4]; A340, after 1 hr", "result": 0.0097}, {"measurement": "OD measured as Absorbance across the membrane in receiving tube", "setting": "[4]; A340, after 2 hr", "result": 0.0214}, {"measurement": "OD measured as Absorbance across the membrane in receiving tube", "setting": "[4]; A340, after 4 hr", "result": 0.0771}, {"measurement": "OD measured as Absorbance across the membrane in receiving tube", "setting": "[4]; A340, after 5 hr", "result": 0.0858}, {"measurement": "OD measured as Absorbance across the membrane in receiving tube", "setting": "[4]; A340, after 6 hr", "result": 0.0910}, {"measurement": "OD measured as Absorbance across the membrane in receiving tube", "setting": "[4]; A475, after 1 hr", "result": 0.0177}, {"measurement": "OD measured as Absorbance across the membrane in receiving tube", "setting": "[4]; A475, after 2 hr", "result": 0.0284}, {"measurement": "OD measured as Absorbance across the membrane in receiving tube", "setting": "[4]; A475, after 3 hr", "result": 0.0309}, {"measurement": "OD measured as Absorbance across the membrane in receiving tube", "setting": "[4]; A475, after 4 hr", "result": 0.0412}, {"measurement": "OD measured as Absorbance across the membrane in receiving tube", "setting": "[4]; A475, after 5 hr", "result": 0.0484}, {"measurement": "OD measured as Absorbance across the membrane in receiving tube", "setting": "[4]; A475, after 6 hr", "result": 0.0496}]}
{"smiles": "CC(=O)O[C@H]1C(=O)[C@@]2(C)[C@H]([C@H](OC(=O)c3ccccc3)[C@]3(O)C[C@H](OC(=O)[C@H](O)[C@@H](NC(=O)c4ccccc4)c4ccccc4)C(C)=C1C3(C)C)[C@]1(OC(C)=O)CO[C@@H]1C[C@@H]2O", "note": "[Taxol, Paclitaxel]", "values": [{"measurement": "Final titre of viable cells upon treatment with taxol alone", "setting": "[5]; Taxol 0.001 μg/ml", "result": "0.059 × 10^6"}, {"measurement": "Final titre of viable cells upon treatment with taxol + cow urine distillate", "setting": "[5]; Taxol 0.001 μg/ml", "result": "0.039 × 10^6"}, {"measurement": "Final titre of viable cells upon treatment with taxol alone", "setting": "[5]; Taxol 0.005 μg/ml", "result": "0.042 × 10^6"}, {"measurement": "Final titre of viable cells upon treatment with taxol + cow urine distillate", "setting": "[5]; Taxol 0.005 μg/ml", "result": "0.032 × 10^6"}, {"measurement": "Final titre of viable cells upon treatment with taxol alone", "setting": "[5]; Taxol 0.01 μg/ml", "result": "0.036 × 10^6"}, {"measurement": "Final titre of viable cells upon treatment with taxol + cow urine distillate", "setting": "[5]; Taxol 0.01 μg/ml", "result": "0.012 × 10^6"}, {"measurement": "killing action of Taxol with cow urine distillate", "setting": "[5]; cancerous cell line MCF-7", "result": "increased"}, {"measurement": "enhancement in the activity of taxol by the distillate", "setting": "[5]; distillate at 1 μl/ml", "result": "at least 5 folds"}]}
